Legend:
XIAP BIR3 = target: T1, XIAP BIR3 (Homo sapiens, UniProt P98170); assay: XIAP BIR3 binding assay (DELFIA), displacement of SMAC peptide; conditions: GST-fusion BIR3 domain (aa 241 to 356) 10 nM, SMAC peptide 10 nM; activity of the (S)-isomers
T1 construct: covering amino acids 241 to 356; XIAP BIR3; made in house; host or cells: E. coli
Summary of the method: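 Each BIR3 domain (10 nM) incubated with biotinylated N-terminal SMAC peptide (10 nM) and compound for 1 h at room temp in Tris/NaCl buffer with BSA, DTT and Triton X-100. Captured on streptavidin plates; bound BIR3 detected by Eu-labelled anti-GST time-resolved fluorescence, giving IC50 values.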

cIAP1 BIR3 = target: T2, cIAP1 BIR3 (Homo sapiens, UniProt Q13490); assay: cIAP1 BIR3 binding assay (DELFIA), displacement of SMAC peptide; conditions: GST-fusion BIR3 domain (aa 256 to 363) 10 nM, SMAC peptide 10 nM; activity of the (S)-isomers
T2 construct: covering amino acids 256 to 363; cIAP1 BIR3; made in house; host or cells: E. coli
T2 sequence (Q13490 256-363): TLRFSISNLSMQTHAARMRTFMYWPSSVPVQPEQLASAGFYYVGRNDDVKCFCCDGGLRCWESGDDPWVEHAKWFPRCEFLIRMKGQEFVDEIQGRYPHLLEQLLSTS
Procedure: Biological Methods XIAP BIR3 and cIAP1 BIR3 Binding Assays (DELFIA)
Peptide […]-Lys(Biotin), representing the N-terminus of mature human SMAC (SMAC peptide), was used as interaction partner in the protein-peptide interaction assay.
BIR3 domains (10 nM) were incubated with SMAC peptide (10 nM) in Assay Buffer (50 mM Tris, 120 mM NaCl, 0.1% BSA, 1 mM DTT, 0.05% TritonX100) for one hour at room temperature in the presence of inhibitiory compounds. The assay mixture was transferred to a strepatvidin coated plate and incubated for one hour at room temperature to allow binding of the biotinylated peptide and associated BIR3 domains to the plate. After several washing steps Eu labeled anti-GST antibody (e.g. Perkin Elmer DELFIA Eu-N1-antiGST AD0250) was added to detect BIR3 domain-SMAC peptide interactions according to Perkin Elmer's instructions. […] Time resolved Europium fluoresecence was measured in a Wallac Victor using Standard assay settings.
DELFIA assay results were plotted against compound concentrations and Software GraphPad Prizm was used to calculate half maximal inhibitory concentrations (IC50 values).

T1 sequence (P98170 241-356): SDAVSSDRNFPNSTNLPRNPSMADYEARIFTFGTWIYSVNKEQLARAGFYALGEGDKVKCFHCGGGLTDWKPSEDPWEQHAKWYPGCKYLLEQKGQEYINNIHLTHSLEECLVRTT

Row | IC50 (XIAP BIR3) [µM] | IC50 (cIAP1 BIR3) [µM] | Structure (SMILES)
1 | 0.212 | 0.001 | CNC(C)C(=O)Nc1ccc(-c2c(C)nc3ccccn23)c(C#Cc2ccc3nccn3c2)n1 (stereo not drawn) [Example 48, N-[6-(2-imidazo[1,2-a]pyridin-6-ylethynyl)-5-(2-methyl-imidazo[1,2-a]pyridin-3-yl)-pyridin-2-yl]-2-(methylamino)-propanamide]
2 | 0.107 | 0.001 | CNC(C)C(=O)Nc1ccc(-c2c(C)nc3ccccn23)c(C#Cc2ccc3cnn(C)c3c2)n1 (stereo not drawn) [Example 49, 2-(methylamino)-N-[5-(2-methylimidazo[1,2-a]pyridin-3-yl)-6-[2-(1-methylindazol-6-yl)-ethynyl]pyridin-2-yl]propan-amide]
3 | 0.095 | 0.001 | CNC(C)C(=O)Nc1ccc(-c2c(C)nc3ccccn23)c(C#Cc2cc3ccncc3s2)n1 (stereo not drawn) [Example 50, 2-(methylamino)-N-[5-(2-methylimidazo[1,2-a]pyridin-3-yl)-6-(2-thieno[2,3-c]pyridin-2-ylethynyl)pyridin-2-yl]propan-amide]
4 | 0.145 | 0.001 | CNC(C)C(=O)Nc1ccc(-c2c(C)nc3ccccn23)c(C#Cc2ccc3occc3c2)n1 (stereo not drawn) [Example 52, N-[6-[2-(1-benzofuran-5-yl)-ethynyl)-5-(2-methyl-imidazo[1,2-a]pyridin-3-yl)-pyridin-2-yl]-2-(methylamino)-propanamide]
5 | 0.116 | 0.001 | CNC(C)C(=O)Nc1ccc(-c2c(C)nc3ccccn23)c(C#Cc2ccc3c(c2)COC3)n1 (stereo not drawn) [Example 53, N-[6-[2-(1,3-dihydro-2-benzofuran-5-yl)ethynyl]-5-(2-methylimidazo[1,2-a]pyridin-3-yl)pyridin-2-yl]-2-(methyl-amino)propanamide]
6 | 0.863 | 0.001 | CNC(C)C(=O)Nc1ccc(-c2c(C)nc(N3CCOCC3)nc2C)c(C#Cc2ccc3ncccc3c2)n1 (stereo not drawn) [Example 54, N-[5-(4,6-dimethyl-2-morpholin-4-ylpyrimidin-5-yl)-6-(2-quinolin-6-ylethynyl)-pyridin-2-yl]-2-(methylamino)-propanamide]
7 | 0.224 | 0.005 | CNC(C)C(=O)Nc1ccc(-c2c(C)nc3ccccn23)c(C#Cc2nn(C)c3ncccc23)n1 (stereo not drawn) [Example 58, 2-(methylamino)-N-[5-(2-methylimidazo[1,2-a]pyridin-3-yl)-6-[2-(1-methylpyrazolo[3,4-b]pyridin-3-yl)ethynyl]pyridin-2-yl]propanamide]
8 | 0.184 | 0.002 | CNC(C)C(=O)Nc1ccc(-c2c(C)nc3ccccn23)c(C#Cc2cnc3ccccn23)n1 (stereo not drawn) [Example 60, N-[6-(2-imidazo[1,2-a]pyridin-3-ylethynyl)-5-(2-methyl-imidazo[1,2-a]pyridin-3-yl)-pyridin-2-yl]-2-(methylamino)-propanamide]
9 | 0.187 | 0.005 | CNC(C)C(=O)Nc1ccc(-c2c(C)nc3ccccn23)c(C#Cc2nn(C)c3ccccc23)n1 (stereo not drawn) [Example 61, 2-(methylamino)-N-[5-(2-methylimidazo[1,2-a]pyridin-3-yl)-6-[2-(1-methylindazol-3-yl)-ethynyl]pyridin-2-yl]propan-amide]
10 | 0.07 | 0.001 | CNC(C)C(=O)Nc1ccc(-c2c(C)nc3ccccn23)c(C#Cc2ccc(C(N)=O)cc2)n1 (stereo not drawn) [Example 63, 4-[2-[6-[[2-(methylamino)-propanoyl]amino]-3-(2-methyl-imidazo[1,2-a]pyridin-3-yl)-pyridin-2-yl]ethynyl]benzamide]
11 | 0.152 | 0.001 | CNC(C)C(=O)Nc1ccc(-c2c(-c3ccncc3)nc3cc(C)ccn23)c(C#Cc2ccc3nc(C)ccc3c2)n1 (stereo not drawn) [Example 64, 2-(methylamino)-N-[5-(7-methyl-2-pyridin-4-ylimidazo[1,2-a]pyridin-3-yl)-6-[2-(2-methylquinolin-6-yl)-ethynyl]pyridin-2-yl]propan-amide]
12 | 0.252 | 0.001 | CNC(C)C(=O)Nc1ccc(-c2c(C)nc3ccccn23)c(C#Cc2ccc3c(c2)CC(=O)N3C)n1 (stereo not drawn) [Example 66, 2-(methylamino)-N-[5-(2-methyliniidazo[1,2-a]pyridin-3-yl)-6-[2-(1-methyl-2-oxo-3H-indol-5-yl)ethynyl]pyridin-2-yl]-propanamide]
13 | 0.11 | 0.002 | CNC(C)C(=O)Nc1ccc(-c2c(C)nc3ccccn23)c(C#Cc2ccc3c(c2)CCO3)n1 (stereo not drawn) [Example 69, N-[6-[2-(2,3-dihydro-1-benzofuran-5-yl)ethynyl]-5-(2-methylimidazo[1,2-a]pyridin-3-yl)pyridin-2-yl]-2-(methyl-amino)propanamide]
14 | 0.066 | 0.001 | CNC(C)C(=O)Nc1ccc(-c2c(C)nc3ccccn23)c(C#Cc2cc3ccccc3o2)n1 (stereo not drawn) [Example 70, N-[6-[2-(1-benzofuran-2-yl)-ethynyl]-5-(2-methyl-imidazo[1,2-a]pyridin-3-yl)-pyridin-2-yl]-2-(methylamino)-propanamide]
15 | 0.3 | 0.001 | CNC(C)C(=O)Nc1ccc(-c2c(C)nc3ccccn23)c(C#Cc2ccc3c(c2)oc(=O)n3C)n1 (stereo not drawn) [Example 71, 2-(methylamino)-N-[5-(2-methylimidazo[1,2-a]pyridin-3-yl)-6-[2-(3-methyl-2-oxo-1,3-benzoxazol-6-yl)ethynyl]-pyridin-2-yl]propanamide]
16 | 0.145 | 0.001 | CNC(C)C(=O)Nc1ccc(-c2c(C)nc3ccccn23)c(C#Cc2ccc3nn(C)cc3c2)n1 (stereo not drawn) [Example 72, 2-(methylamino)-N-[5-(2-methylimidazo[1,2-a]pyridin-3-yl)-6-[2-(2-methylindazol-5-yl)-ethynyl]pyridin-2-yl]propan-amide]
17 | 0.175 | 0.001 | CNC(C)C(=O)Nc1ccc(-c2c(C)nc3ccccn23)c(C#Cc2ccc3oc(=O)n(C)c3c2)n1 (stereo not drawn) [Example 74, 2-(methylamino)-N-[5-(2-methylimidazo[1,2-a]pyridin-3-yl)-6-[2-(3-methyl-2-oxo-1,3-benzoxazol-5-yl)ethynyl]-pyridin-2-yl]propanamide]
18 | 1.67 | 0.001 | CNC(C)C(=O)Nc1ccc(-c2c(C)nc(N(C)C)nc2C)c(C#Cc2ccc3c(ccc(=O)n3C)c2)n1 (stereo not drawn) [Example 75, N-[5-[2-(dimethylamino)-4,6-dimethylpyrimidin-5-yl]-6-[2-(1-methyl-2-oxoquinolin-6-yl)-ethynyl]pyridin-2-yl]-2-(methyl-amino)propanamide]
19 | 0.196 | 0.001 | CNC(C)C(=O)Nc1ccc(-c2c(C)nc3ccccn23)c(C#Cc2ccc3c(OC)nccc3c2)n1 (stereo not drawn) [Example 77, N-[6-[2-(1-methoxyisoquinolin-6-yl)ethynyl]-5-(2-methyl-imidazo[1,2-a]pyridin-3-yl)-pyridin-2-yl]-2-(methylamino)-propanamide]
20 | 0.047 | 0.002 | CNC(C)C(=O)Nc1ccc(-c2c(-c3ccncc3)nc3cc(C)ccn23)c(C#Cc2ccc(F)c3ncccc23)n1 (stereo not drawn) [Example 78, N-[6-[2-(8-fluoroquinolin-5-yl)-ethynyl]-5-(7-methyl-2-pyridin-4-ylimidazo[1,2-a]pyridin-3-yl)-pyridin-2-yl]-2-(methylamino)-propanamide]
21 | 2.4 | 0.001 | CNC(C)C(=O)Nc1ccc(-c2c(C)nc(N3CCCC3)nc2C)c(C#Cc2ccc3c(ccc(=O)n3C)c2)n1 (stereo not drawn) [Example 79, N-[5-(4,6-dimethyl-2-pyrrolidin-1-ylpyrimidin-5-yl)-6-[2-(1-methyl-2-oxoquinolin-6-yl)-ethynyl]pyridin-2-yl]-2-(methyl-amino)propanamide]
22 | 1.31 | 0.001 | CNC(C)C(=O)Nc1ccc(-c2c(C)nc(N3CCCC3)nc2C)c(C#Cc2ccc3ncccc3c2)n1 (stereo not drawn) [Example 80, N-[5-(4,6-dimethyl-2-pyrrolidin-1-ylpyrimidin-5-yl)-6-(2-quinolin-6-ylethynyl)pyridin-2-yl]-2-(methylamino)propan-amide]
23 | 0.253 | 0.001 | CNC(C)C(=O)Nc1ccc(-c2c(-c3ccncc3)nc3cc(C)ccn23)c(C#Cc2ccc3c(ccc(=O)n3C)c2)n1 (stereo not drawn) [Example 81, 2-(methylamino)-N-[6-[2-(1-methyl-2-oxoquinolin-6-yl)-ethynyl]-5-(7-methyl-2-pyridin-4-ylimidazo[1,2-a]pyridin-3-yl)-pyridin-2-yl]propanamide]
24 | 0.061 | 0.001 | CNC(C)C(=O)Nc1ccc(-c2c(-c3ccncc3)nc3cc(C)ccn23)c(C#Cc2ccc(-c3ccon3)cc2)n1 (stereo not drawn) [Example 82, 2-(methylamino)-N-[5-(7-methyl-2-pyridin-4-ylimidazo[1,2-a]pyridin-3-yl)-6-[2-[4-(1,2-oxazol-3-yl)phenyl]-ethynyl]pyridin-2-yl]propan-amide]

Source: patent publication US8859541B2, “6-alkynylpyridines” (Boehringer Ingelheim International GmbH, priority 2012, dated 2014)
